Laboratory results as given in PubChem BioAssay AID1918935 (Molecular Pharmacology Branch, DTP, NCI, 2023).
Values joined by “and” are separate entries in the source; they are usually repeats but may differ in a detail not shown here. Equal entries are not always repeated.

Tested on: 324938-238-R-J1-PDC complex spheroid viability
Experiment: Anticancer human tumor 324938-238-R-J1-PDC patient-derived bladder carcinoma cell line growth inhibition
Conditions: for viability, T/C: stronger effect = lower value
Description: Multicellular complex tumor spheroid response to LSD1 Inhibitor Iadademstat in combination with a variety of drugs and investigational agents in selected tumor cell lines
The current study was undertaken to assess response to LSD1 inhibitors in combination with standard-of-care drugs and investigational agents in solid tumor complex spheroid models as well as in the K-562 leukemia. Complex spheroids include a stromal component modeled by human endothelial cells (HUVEC) and fibroblasts modeled by human mesenchymal stem cells (MSCs). The concentration ranges selected for each drug and investigational agent were based upon clinically achievable concentrations if the clinical Cmax of the agent was known.
Compounds. The drugs and investigational agents used in this study are listed on Table 1. All of the agents used, including staurosporine (NSC755774) and gemcitabine (NSC613327), were obtained from the Developmental Therapeutics Program, NCI. FDA-approved anticancer drugs are available from the NCI at http://dtp.nci.nih.gov/branches/dscb/oncology_drugset_explanation.html. Drugs and investigational agents were >95% pure by proton nuclear magnetic resonance (NMR) and liquid chromatography/mass spectrometry (LC/MS). Stock solutions were prepared at 400x in DMSO, stored at -70 degrees C, and diluted in fresh medium prior to their use. The final concentration of DMSO in cell culture wells never exceeded 0.25% (v/v). The FDA-approved anticancer drug set is available from the Developmental Therapeutics Program at https://dtp.cancer.gov/organization/dscb/obtaining/available_plates.htm. All drugs and investigational agents were tested over a range starting from a high concentration at or near the clinical Cmax and decreasing in half-log increments. If the clinical Cmax for an agent had not been determined, the highest concentration tested was 10 microM.
Cell Lines. The patient-derived cancer cell (PDC) lines: 292921-168-R-J2-PDC, K24384-001-R-PDC, and 521955-158-R2-J5-PDC pancreatic carcinomas, 556581-035-R-J1 ovarian carcinoma, 324938-238-R-J1-PDC, 855422-203-R-J1-PDC and 883617-216-R-J1-PDC urothelial bladder carcinomas, 743489-274-T-PDC renal cell carcinoma, 138582-R-J1 Merkel cell tumor, K60290-347-R-J1 and K57222-313-R-J1-PDC glioblastomas, 653999-131-R-J2-PDC, LG0703-F948-PDC, and 349418-098-R-PDC non-small cell lung carcinomas, 885512-296-R-J2-PDC, 171881-019-R-J1-PDC breast carcinomas and 186277-243-T-J2-PDC and 233499-124-R-J2-PDC colon carcinomas were obtained from the NCI Patient-Derived Models Repository (PDMR, https://pdmr.cancer.gov). The established cell lines NCI/ADR-RES (RRID:CVCL_14520 and OVCAR-5 (RRID:CVCL_1628) ovarian carcinomas, 786-O (RRID:CVCL_1051) and A498 (RRID:CVCL_A498) renal cell carcinoma, NCI-H211 (ATCC, cat. CRL-5824; RRID:CVCL_1529), NCI-H196 (ATCC, cat. CRL-5823, RRID:CVCL_1509), SW 1271 (ATCC, cat. CRL-2177, RRID:CVCL_1716) and NCI-H1876 (ATCC, cat. CRL-5902, RRID:CVCL_1503) small cell lung carcinomas, MDA-MB-231 (RRID:CVCL_0062) and MDA-MB-468 (RRID:CVCL_0419)breast carcinomas (10-12). Pooled donor human umbilical vein endothelial cells (HUVEC, Lonza, cat. CC-2519) and human mesenchymal stem cells (hMSC, Lonza, cat. PT-2501) were purchased from Lonza (Walkersville, MD).
Cell Culture. All cells were maintained in an incubator at 37 degrees C and 5% CO2 with 95% humidity. The PDC lines were cultured according to standard operating procedures established by the NCI PDMR (https://pdmr.cancer.gov). Briefly all PDCs were thawed and cultured in Matrigel-coated flasks prepared with a working solution of 1X Ham's F-12 nutrient mix, without supplementation (Invitrogen, Waltham, MA, cat. 11765054), 100 U/mL penicillin-streptomycin (Invitrogen, cat. 15140122), and 2.5% Matrigel (Corning Inc., Corning, NY, cat. 354248) for the first three passages. […]
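Note: spheroids also contain HUVEC and human MSCs and agents combined with iadademstat; spheroids exposed to agents for 7 days before readout.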

Question: How did the viability, T/C (compound 0.0316 µM) turn out when CC(C)c1c(-c2ccccc2)nc2c(C#N)c[nH]n2c1=O was run?
Answer: The viability, T/C was 98.8% and 110%.

Question: What about the viability, T/C (compound 0.1 µM) of the same compound?
Answer: Its viability, T/C is 108% and 110%.

Question: And the viability, T/C (compound 0.316 µM)?
Answer: The viability, T/C was 96.5% and 120%.

Question: And the viability, T/C (compound 1 µM)?
Answer: Its viability, T/C is 92.4% and 107%.

Question: What about the viability, T/C (compound 3.16 µM) of the same compound?
Answer: Its viability, T/C is 89.5% and 95.7%.

Question: And the viability, T/C (compound 10 µM)?
Answer: The viability, T/C was 81.7% and 80.9%.

Question: What about the IC50 (curve of compound) of the same compound?
Answer: Its IC50 is greater than 10000 nM.

Question: For CC1(C)CCC(CN2CCN(c3ccc(C(=O)NS(=O)(=O)c4ccc(NCC5CCOCC5)c([N+](=O)[O-])c4)c(Oc4cnc5[nH]ccc5c4)c3)CC2)=C(c2ccc(Cl)cc2)C1, which viability, T/C (compound 0.0316 µM) is on record?
Answer: The viability, T/C was 99% and 104%.

Question: What about the viability, T/C (compound 0.1 µM) of the same compound?
Answer: Its viability, T/C is 102% and 108%.

Question: And the viability, T/C (compound 0.316 µM)?
Answer: The viability, T/C was 107% and 109%.

Question: And the viability, T/C (compound 1 µM)?
Answer: The viability, T/C was 103% and 90.5%.

Question: And the viability, T/C (compound 3.16 µM)?
Answer: The viability, T/C was 90.8% and 83%.

Question: What about the viability, T/C (compound 10 µM) of the same compound?
Answer: Its viability, T/C is 28.4% and 20.4%.

Question: And the IC50 (curve of compound)?
Answer: The IC50 was 6730 nM and 5650 nM.

Question: CC1COCCN1c1cc(C2(S(C)(=N)=O)CC2)nc(-c2ccnc3[nH]ccc23)n1 (stereo unspecified) was tested. Which viability, T/C (compound 0.0316 µM) did it give?
Answer: Its viability, T/C is 104% and 97.9%.

Question: And the viability, T/C (compound 0.1 µM)?
Answer: Its viability, T/C is 101% and 108%.

Question: What about the viability, T/C (compound 0.316 µM) of the same compound?
Answer: Its viability, T/C is 98.3% and 78.8%.

Question: And the viability, T/C (compound 1 µM)?
Answer: Its viability, T/C is 71.4% and 44.7%.

Question: What about the viability, T/C (compound 3.16 µM) of the same compound?
Answer: Its viability, T/C is 27.9% and 21.4%.

Question: What about the viability, T/C (compound 10 µM) of the same compound?
Answer: The viability, T/C was 14.6% and 8.79%.

Question: And the IC50 (curve of compound)?
Answer: The IC50 was 1760 nM and 853 nM.

Question: Which viability, T/C (compound 0.00949 µM) does the source give for CCN(c1cc(-c2ccc(CN3CCOCC3)cc2)cc(C(=O)NCc2c(C)cc(C)[nH]c2=O)c1C)C1CCOCC1 here?
Answer: Its viability, T/C is 100% and 111%.

Question: And the viability, T/C (compound 0.03 µM)?
Answer: The viability, T/C was 105%.

Question: What about the viability, T/C (compound 0.0949 µM) of the same compound?
Answer: The viability, T/C was 96.9% and 101%.

Question: And the viability, T/C (compound 0.3 µM)?
Answer: Its viability, T/C is 96.7% and 97.5%.

Question: What about the viability, T/C (compound 0.949 µM) of the same compound?
Answer: The viability, T/C was 94.5% and 98.9%.

Question: And the viability, T/C (compound 3 µM)?
Answer: The viability, T/C was 91.2% and 99%.

Question: And the IC50 (curve of compound)?
Answer: Its IC50 is greater than 3000 nM.

Question: For COc1ccc([C@@H](O)c2cc(-c3ncnc4cc(N5CCOCC5)ccc34)c(F)cc2Cl)nn1, which viability, T/C (compound 0.0316 µM) is on record?
Answer: The viability, T/C was 102%.

Question: And the viability, T/C (compound 0.1 µM)?
Answer: The viability, T/C was 95.8% and 99.8%.

Question: What about the viability, T/C (compound 0.316 µM) of the same compound?
Answer: Its viability, T/C is 86.6% and 81.7%.

Question: What about the viability, T/C (compound 1 µM) of the same compound?
Answer: Its viability, T/C is 69.1% and 64.7%.

Question: What about the viability, T/C (compound 3.16 µM) of the same compound?
Answer: Its viability, T/C is 50.8% and 45.9%.

Question: And the viability, T/C (compound 10 µM)?
Answer: Its viability, T/C is 32.3% and 27.2%.

Question: And the IC50 (curve of compound)?
Answer: Its IC50 is 3240 nM and 2340 nM.

Question: With NC1CC1c1ccc(-c2cccc(O)c2)cc1 (stereo unspecified) as the compound, how does the viability, T/C (compound 0.1 µM) read?
Answer: Its viability, T/C is 86.9% and 102% and 91.3%.

Question: What about the viability, T/C (compound 3.16 µM) of the same compound?
Answer: The viability, T/C was 73.9% [middle of 23 runs].

Question: What about the IC50 (compound alone, run of 12/07/2021) of the same compound?
Answer: Its IC50 is greater than 10000 nM.

Question: Which results are given for NC1CCC(NC2CC2c2ccccc2)CC1 (stereo unspecified)?
Answer: viability, T/C (compound 0.1 µM): 78.6% [middle of 25 runs]; viability, T/C (compound 0.316 µM): 86.7% and 75.8% and 76.6%; viability, T/C (compound 1 µM): 75.9% [middle of 25 runs]; viability, T/C (compound 3.16 µM): 73.6% [middle of 24 runs]; viability, T/C (compound 10 µM): 72.2% [middle of 23 runs]; IC50 (compound alone, run of 11/29/2021): > 10000 nM

Question: Which results are given for O=C(c1cc(Cc2n[nH]c(=O)c3ccccc23)ccc1F)N1CCN(C(=O)C2CC2)CC1?
Answer: viability, T/C (compound 0.0316 µM): 100% and 104%; viability, T/C (compound 0.1 µM): 100% and 104%; viability, T/C (compound 0.316 µM): 107% and 96.3%; viability, T/C (compound 1 µM): 87.4% and 80.7%; viability, T/C (compound 3.16 µM): 64.5% and 48.9%; viability, T/C (compound 10 µM): 40.4% and 31.9%; IC50 (curve of compound): 6260 nM and 3090 nM

Question: What does the source list for Nc1ncn(C2CC(O)C(CO)O2)c(=O)n1 (stereo unspecified) + NC1CC1c1ccc(-c2cccc(O)c2)cc1?
Answer: IC50 (curve of first compound, second compound 0.1 µM): 311 nM; IC50 (curve of first compound, second compound 0.316 µM): 143 nM; IC50 (curve of first compound, second compound 1 µM): 237 nM; IC50 (curve of first compound, second compound 3.16 µM): 227 nM; IC50 (curve of first compound, second compound 10 µM): 258 nM; viability, T/C (second compound 0.1 µM, first compound 0.00316 µM): 95.1%; viability, T/C (second compound 0.1 µM, first compound 0.01 µM): 90.3%; viability, T/C (second compound 0.1 µM, first compound 0.0316 µM): 79.2%; viability, T/C (second compound 0.1 µM, first compound 0.1 µM): 62.8%; viability, T/C (second compound 0.1 µM, first compound 0.316 µM): 49.7%; viability, T/C (second compound 0.1 µM, first compound 1 µM): 43.9%; viability, T/C (second compound 0.316 µM, first compound 0.00316 µM): 73.6%; viability, T/C (second compound 0.316 µM, first compound 0.01 µM): 74.5%; viability, T/C (second compound 0.316 µM, first compound 0.0316 µM): 67.6%; viability, T/C (second compound 0.316 µM, first compound 0.1 µM): 52.4%; viability, T/C (second compound 0.316 µM, first compound 0.316 µM): 44.9%; viability, T/C (second compound 0.316 µM, first compound 1 µM): 41%; viability, T/C (second compound 1 µM, first compound 0.00316 µM): 70.4%; viability, T/C (second compound 1 µM, first compound 0.01 µM): 70.9%; viability, T/C (second compound 1 µM, first compound 0.0316 µM): 62.8%; viability, T/C (second compound 1 µM, first compound 0.1 µM): 57%; viability, T/C (second compound 1 µM, first compound 0.316 µM): 47.9%; viability, T/C (second compound 1 µM, first compound 1 µM): 41.2%; viability, T/C (second compound 3.16 µM, first compound 0.00316 µM): 74.7%; viability, T/C (second compound 3.16 µM, first compound 0.01 µM): 57.7%; viability, T/C (second compound 3.16 µM, first compound 0.0316 µM): 68.5%; viability, T/C (second compound 3.16 µM, first compound 0.1 µM): 56.3%; viability, T/C (second compound 3.16 µM, first compound 0.316 µM): 45.4%; viability, T/C (second compound 3.16 µM, first compound 1 µM): 39.3%; viability, T/C (second compound 10 µM, first compound 0.00316 µM): 63.3%; viability, T/C (second compound 10 µM, first compound 0.01 µM): 73.7%; viability, T/C (second compound 10 µM, first compound 0.0316 µM): 69.9%; viability, T/C (second compound 10 µM, first compound 0.1 µM): 57.6%; viability, T/C (second compound 10 µM, first compound 0.316 µM): 49.7%; viability, T/C (second compound 10 µM, first compound 1 µM): 41.4%
